Experimental data: ChEMBL document CHEMBL4177722, “Small molecule inhibitors of anthrax edema factor” (Bioorg Med Chem Lett, 2018)

Legend:
[1] = target: T1, Calmodulin-sensitive adenylate cyclase (Bacillus anthracis) (UniProt P40136); experiment: Inactivation of Bacillus anthracis edema factor assessed as inactivation rate constant in presence of CaM incubated for 10 to 240 mins by EnzChek pyrophosphate assay
T1 sequence (whole entry): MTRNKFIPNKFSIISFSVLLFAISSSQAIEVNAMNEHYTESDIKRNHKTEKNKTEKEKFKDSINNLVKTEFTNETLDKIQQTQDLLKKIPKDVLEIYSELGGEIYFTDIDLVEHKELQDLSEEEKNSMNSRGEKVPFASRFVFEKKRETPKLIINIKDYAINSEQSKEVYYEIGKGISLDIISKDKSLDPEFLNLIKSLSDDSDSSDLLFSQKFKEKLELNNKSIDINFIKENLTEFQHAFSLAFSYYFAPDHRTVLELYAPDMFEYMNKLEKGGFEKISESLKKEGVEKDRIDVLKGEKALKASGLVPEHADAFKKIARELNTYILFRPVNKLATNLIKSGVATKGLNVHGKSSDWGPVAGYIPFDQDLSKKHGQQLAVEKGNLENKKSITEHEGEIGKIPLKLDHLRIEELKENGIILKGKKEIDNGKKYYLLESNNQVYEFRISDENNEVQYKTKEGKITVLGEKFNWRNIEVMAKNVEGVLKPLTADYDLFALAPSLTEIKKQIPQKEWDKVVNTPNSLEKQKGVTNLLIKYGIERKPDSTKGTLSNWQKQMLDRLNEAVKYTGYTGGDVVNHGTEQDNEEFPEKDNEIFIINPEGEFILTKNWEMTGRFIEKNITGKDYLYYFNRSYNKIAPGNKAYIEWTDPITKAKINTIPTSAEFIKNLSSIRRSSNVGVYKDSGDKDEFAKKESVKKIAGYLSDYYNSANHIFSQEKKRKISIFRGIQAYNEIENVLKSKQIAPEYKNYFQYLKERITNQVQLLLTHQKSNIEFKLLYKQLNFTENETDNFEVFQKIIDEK

[2] = target: T1, Calmodulin-sensitive adenylate cyclase (Bacillus anthracis); experiment: Inactivation of Bacillus anthracis edema factor assessed as Kinact/Ki ratio in presence of CaM incubated for 10 to 240 mins by EnzChek pyrophosphate assay
[3] = target: T1, Calmodulin-sensitive adenylate cyclase (Bacillus anthracis); experiment: Inactivation of Bacillus anthracis edema factor assessed as Kinact/Ki ratio in presence of CaM incubated for 10 to 240 mins by EnzChek pyrophosphate assay relative to FSBA
[4] = (§1) Cytotoxicity against mouse RAW264.7 cells assessed a reduction in cell viability incubated for 24 hrs in presence of 10% FBS by MTT assay; type: cell-based; details: RAW264.7 cells
[5] = Stability in C57BL/6 mouse plasma assessed as half life at 10 uM by LC-MS method; type: ADME, cell-free, C57B/6
[6] = test system: RAW264.7; experiment: Cytotoxicity against mouse RAW264.7 cells assessed a reduction in cell viability incubated for 24 hrs in absence of 10% FBS by MTT assay; type: cell-based; details: raw264.7, 24 h
[7] = target: T2, Calmodulin-sensitive adenylate cyclase (Bacillus anthracis, UniProt P40136); experiment: Inactivation of Bacillus anthracis edema factor in presence of CaM incubated for 10 to 240 mins by EnzChek pyrophosphate assay
T2 sequence (P40136 whole entry): T1 sequence (whole entry)

[8] = target: T1, Calmodulin-sensitive adenylate cyclase (Bacillus anthracis); experiment: Irreversible inactivation of Bacillus anthracis edema factor pre-incubated for 90 mins followed by drug filtration by EnzChek pyrophosphate assay
[9] = target: RAC-alpha serine/threonine-protein kinase (Homo sapiens) (UniProt P31749); experiment: Inhibition of human AKT1 at 10 uM by ADP-Glo kinase assay
[10] = target: Casein kinase I isoform alpha (Homo sapiens) (UniProt P48729); experiment: Inhibition of human CK1a1 at 10 uM by ADP-Glo kinase assay
[11] = target: Casein kinase I isoform gamma-1 (Homo sapiens) (UniProt Q9HCP0); experiment: Inhibition of human CK1g1 at 10 uM by ADP-Glo kinase assay
[12] = target: Casein kinase II subunit alpha (Homo sapiens) (UniProt P68400); experiment: Inhibition of human CK2a1 at 10 uM by ADP-Glo kinase assay
[13] = target: T3, Inhibitor of nuclear factor kappa-B kinase subunit beta (Homo sapiens) (UniProt O14920); experiment: Inhibition of human IKKbeta at 10 uM by ADP-Glo kinase assay
T3 sequence (whole entry): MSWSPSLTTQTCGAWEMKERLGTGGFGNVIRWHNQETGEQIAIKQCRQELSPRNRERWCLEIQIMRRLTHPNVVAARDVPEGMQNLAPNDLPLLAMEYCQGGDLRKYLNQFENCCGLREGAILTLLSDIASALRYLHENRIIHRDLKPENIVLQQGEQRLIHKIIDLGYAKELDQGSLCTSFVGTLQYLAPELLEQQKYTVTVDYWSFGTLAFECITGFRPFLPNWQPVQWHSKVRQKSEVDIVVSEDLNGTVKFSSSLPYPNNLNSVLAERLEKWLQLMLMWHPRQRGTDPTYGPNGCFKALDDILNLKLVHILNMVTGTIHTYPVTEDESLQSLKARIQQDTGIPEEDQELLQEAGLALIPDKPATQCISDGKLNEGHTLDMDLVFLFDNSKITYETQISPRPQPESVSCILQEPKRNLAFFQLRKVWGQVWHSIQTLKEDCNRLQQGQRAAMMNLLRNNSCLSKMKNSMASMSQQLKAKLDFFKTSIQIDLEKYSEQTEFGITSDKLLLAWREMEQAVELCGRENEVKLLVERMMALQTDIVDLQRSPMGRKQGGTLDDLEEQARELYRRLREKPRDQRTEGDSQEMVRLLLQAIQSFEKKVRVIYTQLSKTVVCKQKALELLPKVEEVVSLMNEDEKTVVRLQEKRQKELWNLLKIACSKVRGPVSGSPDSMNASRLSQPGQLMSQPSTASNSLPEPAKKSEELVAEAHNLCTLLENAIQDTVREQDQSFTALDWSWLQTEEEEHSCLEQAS

[14] = target: Misshapen-like kinase 1 (Homo sapiens) (UniProt Q8N4C8); experiment: Inhibition of human MINK at 10 uM by ADP-Glo kinase assay
[15] = target: Mitogen-activated protein kinase 14 (Homo sapiens) (UniProt Q16539); experiment: Inhibition of human p38alpha at 10 uM by ADP-Glo kinase assay
[16] = test system: RAW264.7; experiment: as §1; type: cell-based; details: raw264.7, 24 h

Chain of Misshapen-like kinase 1 (Homo sapiens) (Q8N4C8 whole entry, looked up): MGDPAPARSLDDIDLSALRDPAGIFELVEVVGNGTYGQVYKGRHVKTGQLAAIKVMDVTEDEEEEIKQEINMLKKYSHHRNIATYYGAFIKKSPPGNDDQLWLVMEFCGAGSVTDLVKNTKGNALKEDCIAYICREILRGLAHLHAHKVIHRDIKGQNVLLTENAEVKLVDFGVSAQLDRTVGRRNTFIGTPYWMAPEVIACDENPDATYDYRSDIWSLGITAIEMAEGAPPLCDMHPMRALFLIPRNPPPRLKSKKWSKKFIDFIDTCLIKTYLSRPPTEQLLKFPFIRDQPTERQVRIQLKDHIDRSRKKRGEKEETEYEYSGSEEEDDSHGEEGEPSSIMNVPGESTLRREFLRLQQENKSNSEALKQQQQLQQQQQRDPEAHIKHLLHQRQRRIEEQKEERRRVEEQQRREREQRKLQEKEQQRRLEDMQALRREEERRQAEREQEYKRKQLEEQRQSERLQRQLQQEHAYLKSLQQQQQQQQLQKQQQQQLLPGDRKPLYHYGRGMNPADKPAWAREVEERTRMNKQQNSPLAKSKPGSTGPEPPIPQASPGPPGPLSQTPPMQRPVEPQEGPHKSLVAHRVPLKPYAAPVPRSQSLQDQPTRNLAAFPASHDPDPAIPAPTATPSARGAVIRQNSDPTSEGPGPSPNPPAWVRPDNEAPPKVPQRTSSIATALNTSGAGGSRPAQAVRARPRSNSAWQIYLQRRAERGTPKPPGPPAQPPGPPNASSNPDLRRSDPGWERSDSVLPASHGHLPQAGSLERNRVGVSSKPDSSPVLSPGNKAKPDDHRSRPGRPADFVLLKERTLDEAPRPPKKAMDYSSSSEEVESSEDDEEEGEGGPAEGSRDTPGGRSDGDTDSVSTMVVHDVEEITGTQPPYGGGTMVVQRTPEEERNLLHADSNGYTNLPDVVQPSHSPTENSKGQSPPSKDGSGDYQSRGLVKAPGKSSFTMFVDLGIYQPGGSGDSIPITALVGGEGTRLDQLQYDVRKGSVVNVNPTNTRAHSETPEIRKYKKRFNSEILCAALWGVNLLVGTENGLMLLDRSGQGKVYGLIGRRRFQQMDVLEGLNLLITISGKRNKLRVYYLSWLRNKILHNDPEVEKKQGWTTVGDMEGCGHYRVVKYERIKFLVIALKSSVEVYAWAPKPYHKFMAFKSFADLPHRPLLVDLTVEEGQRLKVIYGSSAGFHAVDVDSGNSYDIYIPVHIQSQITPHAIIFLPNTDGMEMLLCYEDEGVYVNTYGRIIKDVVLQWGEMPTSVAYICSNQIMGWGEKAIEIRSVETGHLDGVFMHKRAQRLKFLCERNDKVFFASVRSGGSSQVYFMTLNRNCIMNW
Chain of Casein kinase II subunit alpha (Homo sapiens) (P68400 whole entry, looked up): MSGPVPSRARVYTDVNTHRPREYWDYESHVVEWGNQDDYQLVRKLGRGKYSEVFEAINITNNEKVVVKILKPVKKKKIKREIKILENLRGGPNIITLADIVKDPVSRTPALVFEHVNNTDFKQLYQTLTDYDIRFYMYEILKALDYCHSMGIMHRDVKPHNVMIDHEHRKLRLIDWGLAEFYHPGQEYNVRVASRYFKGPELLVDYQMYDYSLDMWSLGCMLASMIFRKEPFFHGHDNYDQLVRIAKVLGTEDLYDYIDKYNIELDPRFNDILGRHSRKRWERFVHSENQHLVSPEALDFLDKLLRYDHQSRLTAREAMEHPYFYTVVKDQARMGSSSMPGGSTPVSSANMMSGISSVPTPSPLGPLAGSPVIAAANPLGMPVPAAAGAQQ
Chain of Casein kinase I isoform alpha (Homo sapiens) (P48729 2-337 limits assumed): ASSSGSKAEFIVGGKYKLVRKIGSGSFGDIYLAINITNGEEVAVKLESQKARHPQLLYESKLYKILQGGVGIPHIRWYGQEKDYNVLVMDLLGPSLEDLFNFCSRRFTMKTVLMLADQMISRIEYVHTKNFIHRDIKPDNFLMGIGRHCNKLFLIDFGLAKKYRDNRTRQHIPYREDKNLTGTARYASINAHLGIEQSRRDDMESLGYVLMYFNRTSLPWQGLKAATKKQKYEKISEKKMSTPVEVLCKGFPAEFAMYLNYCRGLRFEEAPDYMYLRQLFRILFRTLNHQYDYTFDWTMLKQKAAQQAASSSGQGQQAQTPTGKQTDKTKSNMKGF
Chain of Mitogen-activated protein kinase 14 (Homo sapiens) (Q16539 whole entry): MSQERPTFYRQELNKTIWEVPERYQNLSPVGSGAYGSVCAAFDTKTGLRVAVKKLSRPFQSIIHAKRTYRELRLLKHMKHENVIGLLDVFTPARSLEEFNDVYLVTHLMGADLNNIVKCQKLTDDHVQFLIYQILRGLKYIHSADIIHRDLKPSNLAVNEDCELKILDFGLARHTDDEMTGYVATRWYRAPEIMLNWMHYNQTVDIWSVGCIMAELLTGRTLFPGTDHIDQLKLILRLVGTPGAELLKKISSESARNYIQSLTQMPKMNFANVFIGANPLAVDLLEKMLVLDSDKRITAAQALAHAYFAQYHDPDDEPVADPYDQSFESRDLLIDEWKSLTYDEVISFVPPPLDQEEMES
Chain of RAC-alpha serine/threonine-protein kinase (Homo sapiens) (P31749 whole entry, canonical isoform): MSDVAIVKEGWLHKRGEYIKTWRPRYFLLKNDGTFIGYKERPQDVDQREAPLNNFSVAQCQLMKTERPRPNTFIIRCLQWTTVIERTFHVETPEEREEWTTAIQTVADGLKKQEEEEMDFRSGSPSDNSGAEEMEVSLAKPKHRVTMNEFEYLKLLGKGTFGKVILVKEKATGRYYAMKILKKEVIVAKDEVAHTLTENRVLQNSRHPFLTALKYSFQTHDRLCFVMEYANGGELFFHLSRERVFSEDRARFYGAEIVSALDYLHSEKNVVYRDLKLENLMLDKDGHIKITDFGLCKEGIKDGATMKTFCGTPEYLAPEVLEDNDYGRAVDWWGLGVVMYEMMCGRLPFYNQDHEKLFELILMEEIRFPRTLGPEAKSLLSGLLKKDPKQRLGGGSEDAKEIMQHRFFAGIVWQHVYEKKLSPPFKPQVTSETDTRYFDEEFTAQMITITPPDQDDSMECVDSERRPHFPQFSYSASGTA
Chain of Casein kinase I isoform gamma-1 (Homo sapiens) (Q9HCP0 whole entry, looked up, canonical isoform): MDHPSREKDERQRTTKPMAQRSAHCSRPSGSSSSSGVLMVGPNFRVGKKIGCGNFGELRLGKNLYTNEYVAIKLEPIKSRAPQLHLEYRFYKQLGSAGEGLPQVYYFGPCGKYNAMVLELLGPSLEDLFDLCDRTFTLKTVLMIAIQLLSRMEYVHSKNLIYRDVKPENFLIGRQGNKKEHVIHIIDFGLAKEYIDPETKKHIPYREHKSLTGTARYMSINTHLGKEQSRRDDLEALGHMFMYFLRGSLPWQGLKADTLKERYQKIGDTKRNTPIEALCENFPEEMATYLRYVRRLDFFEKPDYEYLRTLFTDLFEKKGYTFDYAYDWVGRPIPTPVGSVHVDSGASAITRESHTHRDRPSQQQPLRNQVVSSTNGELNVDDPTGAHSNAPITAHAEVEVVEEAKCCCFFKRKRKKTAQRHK

| SMILES | Kinact [1] | Ratio [2] | Ratio [3] | CC50 at 24 h [4] | half-life at 10 µM [5] | Activity [6] | Ki [7] | inhibition [8] | inhibition [9] | inhibition [10] | inhibition [11] | inhibition [12] | inhibition [13] | inhibition [14] | inhibition [15] | CC50 [16] |
| --- | --- | --- | --- | --- | --- | --- | --- | --- | --- | --- | --- | --- | --- | --- | --- | --- |
| Nc1cc(OC2CCN(C(=O)c3ccc(S(=O)(=O)F)cc3)CC2)ccn1 | 0.049 to 0.069 min⁻¹ | 5.8 to 19.3 | 0.4 to 1.4 | > 100 µM | 0.66 h | Non-Toxic | – | – | – | – | – | – | – | – | – | – |
| Cc1nc(N)c2cnn(C3CCN(C(=O)c4ccc(S(=O)(=O)F)cc4)CC3)c2n1 | 0.072 min⁻¹ | 581 | 43.3 | > 100 µM | 1.2 h | Non-Toxic | 2.1 µM | – | – | – | – | – | – | – | – | – |
| Nc1cc(O[C@@H]2CCN(C(=O)c3ccc(S(=O)(=O)F)cc3)C2)ccn1 | 0.008 min⁻¹ | 3.5 | 0.3 | – | – | Non-Toxic | 38.9 µM | – | – | – | – | – | – | – | – | – |
| Nc1ncnc2c1ncn2[C@@H]1O[C@H](COC(=O)c2ccc(S(=O)(=O)F)cc2)[C@@H](O)[C@H]1O | 0.015 min⁻¹ | 13.4 | – | > 100 µM | – | Non-Toxic | 18.4 µM | Dose-dependent effect | – | – | – | – | – | – | – | – |
| CN[C@@H]1C[C@H]2O[C@@](C)([C@@H]1OC)n1c3ccccc3c3c4c(c5c6ccccc6n2c5c31)C(=O)NC4 | – | – | – | – | – | – | – | – | 61% | 51% | 38% | 64% | 64% | 98% | 11% | – |
| Nc1ncnc2c1ncn2CCOC(=O)c1ccc(S(=O)(=O)F)cc1 | 0.011 min⁻¹ | 6.9 | 0.5 | > 100 µM | – | Non-Toxic | 25.9 µM | – | – | – | – | – | – | – | – | – |
| Cc1cc(OC2CCN(Cc3ccc(S(=O)(=O)F)cc3)CC2)cc(N)n1 | 0.02 min⁻¹ | 7.9 | 0.6 | > 100 µM | – | Non-Toxic | 42.2 µM | – | – | – | – | – | – | – | – | – |
| Nc1cc(OCCCNCc2ccc(S(=O)(=O)F)cc2)ccn1 | 0.063 min⁻¹ | 4.7 | 0.4 | > 100 µM | – | Non-Toxic | 222 µM | – | – | – | – | – | – | – | – | – |
| Nc1cc(OCCNCc2ccc(S(=O)(=O)F)cc2)ccn1 | 0.029 min⁻¹ | 9.6 | 0.7 | > 100 µM | – | Non-Toxic | 49.6 µM | – | – | – | – | – | – | – | – | – |
| Nc1cc(OC2CN(C(=O)c3ccc(S(=O)(=O)F)cc3)C2)ccn1 | 0.003 min⁻¹ | 4.9 | 0.4 | – | – | Non-Toxic | 10.9 µM | – | – | – | – | – | – | – | – | – |
| Cc1nc(N)c2cnn(CCCNC(=O)c3ccc(S(=O)(=O)F)cc3)c2n1 | 0.121 min⁻¹ | 58 | 4.3 | > 100 µM | – | Non-Toxic | 34.8 µM | – | – | – | – | – | – | – | – | – |
| Cc1nc(N)c2ncn(C3CCN(C(=O)c4ccc(S(=O)(=O)F)cc4)CC3)c2n1 | 0.062 min⁻¹ | 62.8 | 4.7 | > 100 µM | – | Non-Toxic | 16.5 µM | – | – | – | – | – | – | – | – | – |
| Nc1cc(OCCCNC(=O)c2ccc(S(=O)(=O)F)cc2)ccn1 | 0.043 min⁻¹ | 8.1 | 0.6 | > 100 µM | – | Non-Toxic | 88.1 µM | – | – | – | – | – | – | – | – | – |
| Cc1nc(N)c2cnn(C3CCN(Cc4ccc(S(=O)(=O)F)cc4)CC3)c2n1 | 0.052 min⁻¹ | 190 | 14.2 | > 100 µM | 1.2 h | Non-Toxic | 4.6 µM | – | – | – | – | – | – | – | – | – |
| Nc1ncnc2c1ncn2C1CCN(C(=O)c2ccc(S(=O)(=O)F)cc2)CC1 | 0.01 min⁻¹ | 18 | 1.3 | > 100 µM | – | Non-Toxic | 9.4 µM | – | – | – | – | – | – | – | – | – |
| Cc1nc(N)cc(OCCNC(=O)c2ccc(S(=O)(=O)F)cc2)n1 | 0.158 min⁻¹ | 9.2 | 0.7 | > 100 µM | – | Non-Toxic | 286 µM | – | – | – | – | – | – | – | – | – |
| Cc1nc(N)cc(OC2CCN(C(=O)c3ccc(S(=O)(=O)F)cc3)CC2)n1 | 0.112 min⁻¹ | 67.8 | 5.1 | > 100 µM | – | Non-Toxic | 27.6 µM | – | – | – | – | – | – | – | – | – |
| Nc1ncnc2c1cnn2C1CCN(C(=O)c2ccc(S(=O)(=O)F)cc2)CC1 | 0.26 min⁻¹ | 1160 | 86.7 | > 100 µM | – | Non-Toxic | 3.7 µM | – | – | – | – | – | – | – | – | – |
| CCOC(=O)C1=C[C@]2(CC)CCCN3CCc4c(n1c1ccccc41)[C@@H]32 [VINPOCETINE] | – | – | – | – | 13.1 h | – | – | – | – | – | – | – | – | – | – | – |
| Cc1nc(N)c2ncn(C3CCN(Cc4ccc(S(=O)(=O)F)cc4)CC3)c2n1 | 0.028 min⁻¹ | 31.2 | 2.3 | > 100 µM | – | Non-Toxic | 14.7 µM | – | – | – | – | – | – | – | – | – |
| Nc1cc(OCc2ccc(S(=O)(=O)F)cc2)ccn1 | 0.198 min⁻¹ | 3.5 | 0.3 | – | – | Non-Toxic | 955 µM | – | – | – | – | – | – | – | – | 86 µM |
| Nc1ncnc2c1ncn2[C@@H]1CCCN(C(=O)c2ccc(S(=O)(=O)F)cc2)C1 | 0.039 min⁻¹ | 6.7 | 0.5 | > 100 µM | – | Non-Toxic | 96.5 µM | – | – | – | – | – | – | – | – | – |
| Nc1ncnc2c1ncn2CCCNC(=O)c1ccc(S(=O)(=O)F)cc1 | 0.012 min⁻¹ | 5.3 | 0.4 | > 100 µM | – | Non-Toxic | 37.7 µM | – | – | – | – | – | – | – | – | – |
| Nc1cc(OCCNC(=O)c2ccc(S(=O)(=O)F)cc2)ccn1 | 0.028 min⁻¹ | 3.6 | 0.3 | > 100 µM | – | Non-Toxic | 127 µM | – | – | – | – | – | – | – | – | – |
